In patent publication US10047036B2, “Method for the synthesis of hydroxy-triglycerides and uses thereof for the prevention and treatment of diseases” (UNIVERSITAT DE LES ILLES BALEARS, priority 2014, dated 2018):

What was measured:
Type in all cases: in vivo
systolic blood pressure = systolic blood pressure in spontaneously hypertensive rats; settings: SHR rats; for Δ SP, change in systolic blood pressure: 14 days, 600 mg/kg every 12 hours, basal 216 mmHg; for drops in systolic blood pressure: 14-day treatments with 600 mg/kg
From the text: Metabolic and cardiovascular pathologies are closely related. The overfeeding which characterises our society not only gives rise to problems of obesity and excess weight. It is also linked to the appearance of diabetes, dyslipidaemia, hypertension, strokes, arteriosclerosis, ictus, etc. All of these pathologies increase the risk of premature death and can even cause death. In this sense, certain natural oils show a certain efficacy against this type of pathologies, but their power is limited. In contrast, the molecules of the invention have an important effect against the development of this type of pathologies. To be able to study the effects of the compounds of the invention for the prevention and treatment of metabolic and cardiovascular pathologies, hypertensive rats were used (SHR strain, spontaneously hypertensive rats). These rats present obesity, high blood pressure, dyslipidaemia (hypercholesterolemia and hypertriglyceridemia), diabetes, metabolic syndrome and other related health problems. Hypertensive rats of the SHR strain (spontaneously hypertensive rats) with an approximate weight of 300 grams were treated with TGM1 during 9 days (400 mg/kg, every 12 h, p.o.). Systolic pressure was measured before starting the treatment (basal) and 9 days later. In these animals with a metabolic/cardiovascular pathology, this treatment with TGM1 produced drops in blood pressure of approximately 25 mmHg, while the 14-day treatments with 600 mg/kg of TGM1 induced even greater drops in systolic blood pressure of up to 37 mmHg for TGM1 and up to 52 mmHg for TGM6 (FIG. 4 and Table 3). […] [table]

cholesterol in plasma = assay: plasma cholesterol in SHR rats; settings: p.o.; for Chol, levels of total cholesterol in plasma: 6 days, 400 mg/kg
From the text: Metabolic and cardiovascular pathologies are closely related. The overfeeding which characterises our society not only gives rise to problems of obesity and excess weight. It is also linked to the appearance of diabetes, dyslipidaemia, hypertension, strokes, arteriosclerosis, ictus, etc. All of these pathologies increase the risk of premature death and can even cause death. In this sense, certain natural oils show a certain efficacy against this type of pathologies, but their power is limited. In contrast, the molecules of the invention have an important effect against the development of this type of pathologies. To be able to study the effects of the compounds of the invention for the prevention and treatment of metabolic and cardiovascular pathologies, hypertensive rats were used (SHR strain, spontaneously hypertensive rats). These rats present obesity, high blood pressure, dyslipidaemia (hypercholesterolemia and hypertriglyceridemia), diabetes, metabolic syndrome and other related health problems. Also, SHR rats were used to research the efficacy of the hydroxy-triglycerides for the prevention and treatment of dyslipidaemias. On the one hand, treatments with different oral doses and durations gave rise to reductions in the plasma levels of total cholesterol and its fractions in test animals (Tables 5 and 6). These reductions were marked and significant, returning the cholesterol in plasma values to those found in animals without metabolic/cardiovascular disorders. […] [table] [table]

[1] = tested on: Drosophila melanogaster flies with human Alzheimer's genes (F1); assay: geotaxis (climbing) test in Drosophila melanogaster with Alzheimer's disease; settings: 100 μM in the food; for Geotaxis: age at which the animals showed a geotaxis of nil: no fly passes the line
From the text: To investigate the effect of TGMs on the cognitive parameters and aging, another model of Alzheimer's disease in Drosophila melanogaster flies with genetic alterations corresponding to human Alzheimer's was used. The flies used were the first generation (F1) from the crossing of UAS-Aβ human-Tau 2N4R (stock 33771) flies with elav-GAL4^c155 (stock 8760) flies. This model which over-expresses the two proteins typical of Alzheimer's disease is complementary to the model described above and very convenient, as these animals have a life of approximately 1 month and it is possible to add the compounds to the food of the larvae to see the preventative effect thereof throughout their entire life. Also, it allows the effect on aging to be seen and on the life expectancy of these animals (survival over time).
In this sense, the flies with human Alzheimer's (F1) present a greater cognitive decline in comparison to the “Oregon” fly strain, which are the healthy controls. To evaluate the effect of the hydroxy-triglycerides of the invention, each one of the TGMs (100 μM) was added to the food consumed by these animals. It was possible to observe a positive effect of same in the geotaxis test of climbing (FIG. 7B and Table 11). In this test, the behavioural motor activity was investigated in 25 flies treated with vehicle or one of the TGMs. In this study, the flies were introduced in a glass cylinder with an opening closed with a sponge so air could enter. The flies were taken to the ground (bottom) of the pipe by giving it a sharp blow on a table and their behaviour was timed during 20 seconds. Once this time was over, the number of flies which had passed (crossed) a mark at 15 cm from the bottom was counted (geotaxis test). Usually, more than 90% of healthy young flies passed the line within 20 seconds. However, with aging or with Alzheimer's disease, the behavioural motor activity (percentage of flies which crossed the line) declined, compared to normal flies. In this context, the treatments with the hydroxy-triglycerides of the present invention avoided this cognitive decline associated to Alzheimer's, making the cognitive capacity of the diseased flies similar to that of the healthy flies. […] This positive effect on the cognitive parameters in flies was also shown by other TGMs (Table 11). In fact, in the control group with Alzheimer, no fly crossed the line as of 23 days of age. In this sense, the different hydroxy-triglycerides induced marked increases in the geotaxis test values, with increases in the cognitive values which reached up to 36 days, 50% more in the life of the flies with Alzheimer's (Table 11).

Row | Compound | Δ SP, change in systolic blood pressure (systolic blood pressure; p.o.) [mmHg] | Chol, levels of total cholesterol in plasma (cholesterol in plasma) [mg/dL] | Geotaxis: age at which the animals showed a geotaxis of nil [1] [days] | drops in systolic blood pressure (systolic blood pressure) | cognitive parameters in the climbing test (FIG. 7B) ([1]; compared with normal flies) | drops in blood pressure (systolic blood pressure; 9 days, 400 mg/kg every 12 h, p.o.) | HDL in plasma (cholesterol in plasma; 14 days, 600 mg/kg, 12 h) [mmHgmg/dl] | LDL in plasma (cholesterol in plasma; 14 days, 600 mg/kg, 12 h) [mmHgmg/dl] | Total cholesterol in plasma (cholesterol in plasma; 14 days, 600 mg/kg, 12 h) [mmHgmg/dl]
1 | CCC=CCC=CCC=CCC=CCC=CCCC(O)C(=O)OCC(COC(=O)C(O)CCC=CCC=CCC=CCC=CCC=CCC)OC(=O)C(O)CCC=CCC=CCC=CCC=CCC=CCC (stereo not shown) [TGM5, 1,2,3-tri(2′-hydroxy-eicosa-5′,8′,11′,14′,17′-pentaenoyl)glycerol] | −40 | 58.4 ± 3 | 26 |  |  |  |  |  | 
2 | CCCCCC=CCC=CCCCCCCC(O)C(=O)OCC(COC(=O)C(O)CCCCCCC=CCC=CCCCCC)OC(=O)C(O)CCCCCCC=CCC=CCCCCC (stereo not shown) [TGM2, 1,2,3-tri(2′-hydroxy-octadec-9′,12′-dienoyl)glycerol] | −41 | 51.7 ± 2 | 29 |  |  |  |  |  | 
3 | CCC=CCC=CCC=CCC=CCC=CCC=CCC(O)C(=O)OCC(COC(=O)C(O)CC=CCC=CCC=CCC=CCC=CCC=CCC)OC(=O)C(O)CC=CCC=CCC=CCC=CCC=CCC=CCC (stereo not shown) [TGM6, 1,2,3-tri(2′-hydroxy-docosa-4′,7′,10′,13′,16′,19′-hexanoyl)glycerol] | −52 | 48.9 ± 3 | 28 | up to 52 mmHg | practically indistinguishable from that observed in normal flies |  |  |  | 
4 | CCC=CCC=CCC=CCCCCCCC(O)C(=O)OCC(COC(=O)C(O)CCCCCCC=CCC=CCC=CCC)OC(=O)C(O)CCCCCCC=CCC=CCC=CCC (stereo not shown) [TGM3A, 1,2,3-tri(2′-hydroxy-octadec-9′,12′,15′-trienoyl)glycerol] | −28 | 49.8 ± 2 | 36 |  |  |  |  |  | 
5 | CCCCCCCCC=CCCCCCCC(O)C(=O)OCC(COC(=O)C(O)CCCCCCC=CCCCCCCCC)OC(=O)C(O)CCCCCCC=CCCCCCCCC (stereo not shown) [TGM1, 1,2,3-tri(2′-hydroxy-octadec-9′-enoyl)glycerol] | −37 | 55.5 ± 2 | 32 | up to 37 mmHg |  | approximately 25 mmHg | 33.44 ± 2.251 | 3.644 ± 0.3244 | 49.11 ± 3.084
6 | CCCCCC=CCC=CCC=CCC=CCCC(O)C(=O)OCC(COC(=O)C(O)CCC=CCC=CCC=CCC=CCCCCC)OC(=O)C(O)CCC=CCC=CCC=CCC=CCCCCC (stereo not shown) [TGM4, 1,2,3-tri(2′-hydroxy-eicosa-5′,8′,11′,14′-tetraenoyl)glycerol] | −43 | 72.7 ± 2 | 35 |  |  |  |  |  | 
7 | CCCCCC(O)C(=O)OCC(COC(=O)C(O)CCCCC)OC(=O)C(O)CCCCC (stereo not shown) [TGM0, 1,2,3-tri(2′-hydroxyheptanoyl)glycerol] | −8 | 62.2 ± 3 | 25 |  |  |  |  |  | 
8 | CCCCCC=CCC=CCC=CCCCC(O)C(=O)OCC(COC(=O)C(O)CCCC=CCC=CCC=CCCCCC)OC(=O)C(O)CCCC=CCC=CCC=CCCCCC (stereo not shown) [TGM3G, 1,2,3-tri(2′-hydroxy-octadec-6′,9′,12′-trienoyl)glycerol] | −21 | 65.1 ± 4 | 29 |  |  |  |  |  | 
